According to ChEMBL document CHEMBL3991601, “The target landscape of clinical kinase drugs” (Science, 2017):
Active and inactive are the calls of the source.

Assays:
[1] = molecular target: T1, Dynamin-like GTPase OPA1, mitochondrial (Homo sapiens, UniProt O60313)
T1 sequence (O60313 whole entry): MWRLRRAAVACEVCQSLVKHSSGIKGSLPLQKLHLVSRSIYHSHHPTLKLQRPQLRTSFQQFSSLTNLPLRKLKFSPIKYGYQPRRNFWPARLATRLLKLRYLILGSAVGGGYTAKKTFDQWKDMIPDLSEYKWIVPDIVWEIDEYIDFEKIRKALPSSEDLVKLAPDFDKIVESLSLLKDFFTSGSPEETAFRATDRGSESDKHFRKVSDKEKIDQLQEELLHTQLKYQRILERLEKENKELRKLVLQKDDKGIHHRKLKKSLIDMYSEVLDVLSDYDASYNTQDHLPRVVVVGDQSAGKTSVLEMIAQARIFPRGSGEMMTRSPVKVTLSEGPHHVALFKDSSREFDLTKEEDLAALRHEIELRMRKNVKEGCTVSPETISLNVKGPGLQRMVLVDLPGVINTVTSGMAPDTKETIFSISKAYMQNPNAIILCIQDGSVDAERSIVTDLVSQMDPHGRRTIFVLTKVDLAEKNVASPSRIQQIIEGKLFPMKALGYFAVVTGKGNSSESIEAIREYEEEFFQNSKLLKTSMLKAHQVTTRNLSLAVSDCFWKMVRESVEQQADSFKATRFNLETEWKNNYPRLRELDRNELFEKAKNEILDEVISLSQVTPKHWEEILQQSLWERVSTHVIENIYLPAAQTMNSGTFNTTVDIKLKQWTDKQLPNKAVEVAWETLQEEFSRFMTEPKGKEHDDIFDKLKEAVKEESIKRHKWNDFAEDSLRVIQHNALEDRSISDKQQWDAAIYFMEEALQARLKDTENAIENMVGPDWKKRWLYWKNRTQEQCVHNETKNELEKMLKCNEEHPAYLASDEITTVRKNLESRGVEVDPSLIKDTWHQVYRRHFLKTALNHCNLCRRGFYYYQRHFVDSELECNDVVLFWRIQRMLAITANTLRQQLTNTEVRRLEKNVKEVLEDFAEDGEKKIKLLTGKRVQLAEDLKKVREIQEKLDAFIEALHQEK

[2] = molecular target: T2, Serine/threonine-protein kinase 4 (Homo sapiens, UniProt Q13043)
T2 sequence (Q13043 whole entry): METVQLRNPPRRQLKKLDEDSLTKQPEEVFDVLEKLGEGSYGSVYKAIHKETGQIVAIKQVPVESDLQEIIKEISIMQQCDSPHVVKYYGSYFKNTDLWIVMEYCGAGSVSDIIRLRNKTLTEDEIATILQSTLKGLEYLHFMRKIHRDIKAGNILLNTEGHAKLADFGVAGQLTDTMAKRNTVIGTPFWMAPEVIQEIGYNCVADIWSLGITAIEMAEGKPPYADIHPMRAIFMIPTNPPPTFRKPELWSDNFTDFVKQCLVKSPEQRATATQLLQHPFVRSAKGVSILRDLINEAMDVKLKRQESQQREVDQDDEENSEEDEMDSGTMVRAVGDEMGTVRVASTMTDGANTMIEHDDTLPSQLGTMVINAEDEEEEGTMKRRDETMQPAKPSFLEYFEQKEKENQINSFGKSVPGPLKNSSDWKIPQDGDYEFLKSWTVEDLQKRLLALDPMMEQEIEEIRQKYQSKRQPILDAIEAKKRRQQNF

[3] = molecular target: cAMP-dependent protein kinase catalytic subunit beta (Homo sapiens, UniProt P22694)
[4] = molecular target: Bone morphogenetic protein receptor type-1A (Homo sapiens, UniProt P36894)
[5] = molecular target: G protein-coupled receptor kinase 6 (Homo sapiens, UniProt P43250)
[6] = molecular target: T3, Succinate--CoA ligase [ADP-forming] subunit beta, mitochondrial (Homo sapiens, UniProt Q9P2R7)
T3 sequence (Q9P2R7 whole entry): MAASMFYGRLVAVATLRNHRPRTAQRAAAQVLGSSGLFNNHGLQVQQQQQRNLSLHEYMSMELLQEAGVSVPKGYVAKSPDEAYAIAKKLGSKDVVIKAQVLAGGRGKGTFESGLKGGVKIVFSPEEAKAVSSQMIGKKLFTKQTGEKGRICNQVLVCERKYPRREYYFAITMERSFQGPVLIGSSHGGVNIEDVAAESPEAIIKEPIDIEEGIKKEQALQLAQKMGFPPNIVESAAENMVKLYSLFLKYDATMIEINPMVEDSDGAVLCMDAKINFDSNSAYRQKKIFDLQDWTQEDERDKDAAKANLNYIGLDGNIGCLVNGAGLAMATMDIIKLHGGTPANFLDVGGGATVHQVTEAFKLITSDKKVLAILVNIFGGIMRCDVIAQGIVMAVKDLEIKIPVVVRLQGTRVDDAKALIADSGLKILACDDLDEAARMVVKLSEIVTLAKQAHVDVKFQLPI

[7] = molecular target: T4, Serine/threonine-protein kinase D2 (Homo sapiens, UniProt Q9BZL6)
T4 sequence (Q9BZL6 whole entry): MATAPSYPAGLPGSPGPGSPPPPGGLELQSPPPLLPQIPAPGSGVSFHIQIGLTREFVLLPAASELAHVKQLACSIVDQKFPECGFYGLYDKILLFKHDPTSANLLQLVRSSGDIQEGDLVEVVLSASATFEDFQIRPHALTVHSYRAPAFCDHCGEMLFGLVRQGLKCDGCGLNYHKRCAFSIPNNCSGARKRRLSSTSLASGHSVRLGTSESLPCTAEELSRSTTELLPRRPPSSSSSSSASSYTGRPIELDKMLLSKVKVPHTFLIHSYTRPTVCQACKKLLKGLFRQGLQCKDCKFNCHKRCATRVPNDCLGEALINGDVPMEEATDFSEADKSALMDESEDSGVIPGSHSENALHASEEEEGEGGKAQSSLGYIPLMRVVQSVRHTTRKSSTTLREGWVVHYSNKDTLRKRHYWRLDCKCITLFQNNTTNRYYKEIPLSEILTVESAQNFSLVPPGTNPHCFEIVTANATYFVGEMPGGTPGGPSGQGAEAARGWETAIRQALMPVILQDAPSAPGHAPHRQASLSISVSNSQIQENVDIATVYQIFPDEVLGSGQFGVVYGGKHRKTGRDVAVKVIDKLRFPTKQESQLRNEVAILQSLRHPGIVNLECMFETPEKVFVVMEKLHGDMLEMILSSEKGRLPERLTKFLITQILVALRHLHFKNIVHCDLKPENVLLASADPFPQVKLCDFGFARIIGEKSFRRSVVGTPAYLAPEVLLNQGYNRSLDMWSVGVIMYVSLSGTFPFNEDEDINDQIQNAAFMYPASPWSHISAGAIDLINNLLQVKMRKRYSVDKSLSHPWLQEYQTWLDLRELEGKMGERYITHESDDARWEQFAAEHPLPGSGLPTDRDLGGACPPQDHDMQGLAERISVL
Also: in the data inactive means no Kd found up to 30 µM.

G protein-coupled receptor kinase 6, sequence (P43250 whole entry): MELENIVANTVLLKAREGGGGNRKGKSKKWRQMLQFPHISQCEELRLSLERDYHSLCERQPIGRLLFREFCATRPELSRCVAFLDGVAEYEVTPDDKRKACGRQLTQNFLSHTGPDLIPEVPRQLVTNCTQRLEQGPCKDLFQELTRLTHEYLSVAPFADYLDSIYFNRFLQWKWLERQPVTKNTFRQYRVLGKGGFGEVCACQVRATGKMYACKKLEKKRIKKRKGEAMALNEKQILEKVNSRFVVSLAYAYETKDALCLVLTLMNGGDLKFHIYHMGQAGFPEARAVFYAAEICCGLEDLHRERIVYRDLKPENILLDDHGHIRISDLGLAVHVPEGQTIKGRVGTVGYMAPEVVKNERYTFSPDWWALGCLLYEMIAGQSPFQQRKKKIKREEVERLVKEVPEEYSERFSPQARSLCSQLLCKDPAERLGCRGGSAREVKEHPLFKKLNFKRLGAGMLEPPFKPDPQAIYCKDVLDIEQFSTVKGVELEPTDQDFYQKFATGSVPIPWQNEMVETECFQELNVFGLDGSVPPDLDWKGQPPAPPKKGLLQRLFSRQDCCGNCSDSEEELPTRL
Bone morphogenetic protein receptor type-1A, sequence (P36894 whole entry): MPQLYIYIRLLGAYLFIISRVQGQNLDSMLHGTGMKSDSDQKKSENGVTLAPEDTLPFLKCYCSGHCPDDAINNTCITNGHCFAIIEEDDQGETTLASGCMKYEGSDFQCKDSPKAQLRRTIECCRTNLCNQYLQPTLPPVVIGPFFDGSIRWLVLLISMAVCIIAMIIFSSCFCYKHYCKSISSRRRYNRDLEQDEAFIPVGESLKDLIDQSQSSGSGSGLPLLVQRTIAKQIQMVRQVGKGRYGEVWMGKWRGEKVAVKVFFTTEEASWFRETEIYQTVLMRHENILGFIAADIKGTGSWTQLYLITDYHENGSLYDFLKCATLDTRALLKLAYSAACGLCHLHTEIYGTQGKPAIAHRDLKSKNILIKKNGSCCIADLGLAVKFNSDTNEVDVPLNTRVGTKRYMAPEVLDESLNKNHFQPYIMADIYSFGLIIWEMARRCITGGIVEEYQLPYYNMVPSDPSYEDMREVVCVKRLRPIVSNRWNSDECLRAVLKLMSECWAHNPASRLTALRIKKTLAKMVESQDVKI

| Structure (SMILES) | Kd [1] | Kd [2] | Kd [3] | Kd [4] | Kd [5] | Kd [6] | Kd [7] |
| --- | --- | --- | --- | --- | --- | --- | --- |
| COc1cc(Nc2ncc3c(n2)-c2ccc(Cl)cc2C(c2c(F)cccc2OC)=NC3)ccc1C(=O)O [ALISERTIB] | > 30 µM (inactive) | > 30 µM (inactive) | > 30 µM (inactive) | > 30 µM (inactive) | > 30 µM (inactive) | > 30 µM (inactive) | – |
| O=C(Nc1c[nH]nc1-c1nc2cc(CN3CCOCC3)ccc2[nH]1)NC1CC1 [AT-9283] | > 30 µM (inactive) | > 30 µM (inactive) | 0.927 µM (active) | 0.388 µM (active) | 13.6 µM | > 30 µM (inactive) | – |
| CNC(=O)c1ccccc1Sc1ccc2c(/C=C/c3ccccn3)n[nH]c2c1 [AXITINIB] | > 30 µM (inactive) | – | – | – | > 30 µM (inactive) | > 30 µM (inactive) | – |
| Cc1cc(C(=O)NOCCO)c(Nc2ccc(I)cc2F)n(C)c1=O [AZD-8330] | > 30 µM (inactive) | > 30 µM (inactive) | > 30 µM (inactive) | > 30 µM (inactive) | > 30 µM (inactive) | – | > 30 µM (inactive) |
| C#Cc1cccc(Nc2ncnc3cc(OC)c(OCCCCCCC(=O)NO)cc23)c1 [CUDC-101] | > 30 µM (inactive) | > 30 µM (inactive) | > 30 µM (inactive) | > 30 µM (inactive) | > 30 µM (inactive) | – | > 30 µM (inactive) |
| Cc1nc2cc(-n3ncc(C(=O)c4cc5ccccc5[nH]4)c3N)ccc2[nH]1 [FGFR INHIBITOR DEBIO 1347] | > 30 µM (inactive) | > 30 µM (inactive) | > 30 µM (inactive) | > 30 µM (inactive) | – | > 30 µM (inactive) | > 30 µM (inactive) |
| O=C(Nc1nc2cccc(-c3ccc(CN4CCS(=O)(=O)CC4)cc3)n2n1)C1CC1 [FILGOTINIB] | > 30 µM (inactive) | > 30 µM (inactive) | > 30 µM (inactive) | > 30 µM (inactive) | – | > 30 µM (inactive) | > 30 µM (inactive) |
| C[C@@H](Oc1cc(-n2cnc3ccc(CN4CCN(C)CC4)cc32)sc1C(N)=O)c1ccccc1C(F)(F)F [GSK-461364] | > 30 µM (inactive) | – | – | – | > 30 µM (inactive) | > 30 µM (inactive) | – |
| CCn1cc(-c2ccnc3[nH]c(-c4cccc(CN(C)C)c4)cc23)c(-c2ccc(NC(=O)N(C)C)cc2)n1 [GSK-1070916] | > 30 µM (inactive) | > 30 µM (inactive) | > 30 µM (inactive) | > 30 µM (inactive) | > 30 µM (inactive) | – | – |
| COc1ccc(S(=O)(=O)N(C(C)=O)c2ccccc2/C=C/c2cc[n+]([O-])cc2)cc1 [HMN-214] | > 30 µM (inactive) | > 30 µM (inactive) | > 30 µM (inactive) | > 30 µM (inactive) | > 30 µM (inactive) | – | > 30 µM (inactive) |
| O=C(Nc1cc(C(F)(F)F)cc(C(F)(F)F)c1)c1cc(Cl)ccc1O [IMD-0354] | > 30 µM (inactive) | > 30 µM (inactive) | > 30 µM (inactive) | > 30 µM (inactive) | > 30 µM (inactive) | > 30 µM (inactive) | – |
| CN(C[C@@H]1COCCO1)S(=O)(=O)Nc1ccc2ccc3ncc(-c4cnn(C)c4)cc3c(=O)c2c1 [MK-2461] | > 30 µM (inactive) | > 30 µM (inactive) | > 30 µM (inactive) | > 30 µM (inactive) | – | > 30 µM (inactive) | > 30 µM (inactive) |
| NC(=O)c1c(OCc2c(F)cc(Br)cc2F)nsc1NC(=O)NCCCCN1CCCC1 [OSI-632] | > 30 µM (inactive) | > 30 µM (inactive) | – | – | > 30 µM (inactive) | > 30 µM (inactive) | – |
| CCCCCCCCCCCCCCCCCCOP(=O)([O-])OC1CC[N+](C)(C)CC1 [PERIFOSINE] | > 30 µM (inactive) | > 30 µM (inactive) | > 30 µM (inactive) | > 30 µM (inactive) | – | > 30 µM (inactive) | > 30 µM (inactive) |
| CC(=O)NCC(=O)N1[C@@H]2CC[C@H]1c1ccc(Nc3ncc(C(F)(F)F)c(NC4CCC4)n3)cc12 [PF-03814735] | > 30 µM (inactive) | 0.828 µM (active) | > 30 µM (inactive) | > 30 µM (inactive) | > 30 µM (inactive) | – | – |
| Cc1cnc(NC(=O)Nc2cc(Br)c(C)cc2OC[C@@H]2CNCCO2)cn1 [RABUSERTIB] | > 30 µM (inactive) | > 30 µM (inactive) | > 30 µM (inactive) | > 30 µM (inactive) | > 30 µM (inactive) | – | > 30 µM (inactive) |
| CO[C@H]1C[C@@H]2CC[C@@H](C)[C@@](O)(O2)C(=O)C(=O)N2CCCC[C@H]2C(=O)O[C@H]([C@H](C)C[C@@H]2CC[C@@H](OP(C)(C)=O)[C@H](OC)C2)CC(=O)[C@H](C)/C=C(\C)[C@@H](O)[C@@H](OC)C(=O)[C@H](C)C[C@H](C)/C=C/C=C/C=C/1C [RIDAFOROLIMUS] | > 30 µM (inactive) | > 30 µM (inactive) | > 30 µM (inactive) | > 30 µM (inactive) | > 30 µM (inactive) | – | > 30 µM (inactive) |
| O=C(NOCCO)c1cc(CN2OCCCC2=O)c(F)c(F)c1Nc1ccc(I)cc1F [RO-4987655] | > 30 µM (inactive) | – | – | – | > 30 µM (inactive) | > 30 µM (inactive) | – |
| O=c1[nH]ccc2cc(OC3CCNCC3)ccc12 [SAR-407899 FREE BASE] | > 30 µM (inactive) | > 30 µM (inactive) | > 30 µM (inactive) | > 30 µM (inactive) | – | > 30 µM (inactive) | > 30 µM (inactive) |
| C[C@@H](NC(=O)c1ncnc(N)c1Cl)c1ncc(C(=O)Nc2cc(C(F)(F)F)c(Cl)cn2)s1 [TOVORAFENIB] | > 30 µM (inactive) | > 30 µM (inactive) | > 30 µM (inactive) | > 30 µM (inactive) | – | > 30 µM (inactive) | > 30 µM (inactive) |
